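All cell lines were grown in 96-well plates and treated with compound for 48 hours. Here, GI50 denotes the concentration required for 50% inhibition of growth. TGI marks complete inhibition of growth.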
Tests used:
Assay in all cases: NCI-60 cell line screen, 48 h
786-0 renal = test system: 786-0 renal
A498 renal = test system: A498 renal
A549 NSCLC = test system: A549 NSCLC
ACHN renal = test system: ACHN renal
BT-549 breast = test system: BT-549 breast
CAKI-1 renal = test system: CAKI-1 renal
CCRF-CEM leukemia = test system: CCRF-CEM leukemia
COLO 205 colon = test system: COLO 205 colon
DU-145 prostate = test system: DU-145 prostate
EKVX NSCLC = test system: EKVX NSCLC
HCC-2998 colon = test system: HCC-2998 colon
HCT-116 colon = test system: HCT-116 colon
HCT-15 colon = test system: HCT-15 colon
HL-60(TB) leukemia = test system: HL-60(TB) leukemia
HOP-62 NSCLC = test system: HOP-62 NSCLC
HOP-92 NSCLC = test system: HOP-92 NSCLC
HS 578T breast = test system: HS 578T breast
HT29 colon = test system: HT29 colon
IGROV1 ovarian = test system: IGROV1 ovarian
K-562 leukemia = test system: K-562 leukemia
KM12 colon = test system: KM12 colon
LOX IMVI melanoma = test system: LOX IMVI melanoma
M14 melanoma = test system: M14 melanoma
MALME-3M melanoma = test system: MALME-3M melanoma
MCF7 breast = test system: MCF7 breast
MDA-MB-231 breast = test system: MDA-MB-231 breast
MDA-MB-435 = test system: MDA-MB-435
MOLT-4 leukemia = test system: MOLT-4 leukemia
NCI-H226 lung = test system: NCI-H226 lung
NCI-H23 lung = test system: NCI-H23 lung
NCI-H460 lung = test system: NCI-H460 lung
NCI-H522 lung = test system: NCI-H522 lung
NCI/ADR-RES ovarian = test system: NCI/ADR-RES ovarian
OVCAR-3 ovarian = test system: OVCAR-3 ovarian
OVCAR-4 ovarian = test system: OVCAR-4 ovarian
OVCAR-5 ovarian = test system: OVCAR-5 ovarian
OVCAR-8 ovarian = test system: OVCAR-8 ovarian
PC-3 prostate = test system: PC-3 prostate
RPMI-8226 leukemia = test system: RPMI-8226 leukemia
RXF 393 renal = test system: RXF 393 renal
SF-268 CNS = test system: SF-268 CNS
SF-295 CNS = test system: SF-295 CNS
SF-539 CNS = test system: SF-539 CNS
SK-MEL-2 melanoma = test system: SK-MEL-2 melanoma
SK-MEL-28 melanoma = test system: SK-MEL-28 melanoma
SK-MEL-5 melanoma = test system: SK-MEL-5 melanoma
SK-OV-3 ovarian = test system: SK-OV-3 ovarian
SN12C renal = test system: SN12C renal
SNB-19 CNS = test system: SNB-19 CNS
SNB-75 CNS = test system: SNB-75 CNS
SR leukemia = test system: SR leukemia
SW-620 colon = test system: SW-620 colon
T-47D breast = test system: T-47D breast
TK-10 renal = test system: TK-10 renal
U251 CNS = test system: U251 CNS
UACC-257 melanoma = test system: UACC-257 melanoma
UACC-62 melanoma = test system: UACC-62 melanoma
UO-31 renal = test system: UO-31 renal

CC1=C2[C@@H](CC1)[C@]1(C)O[C@@](c3ccccc3)(C[C@H]1OC(=O)CO)[C@H]2OC(=O)/C=C/c1ccccc1
GI50 (786-0 renal): 5.23 µM
TGI (786-0 renal): 25.6 µM
GI50 (A498 renal): 0.0966 µM
TGI (A498 renal): 0.478 µM
GI50 (A549 NSCLC): 14.5 µM
TGI (A549 NSCLC): 38 µM
GI50 (ACHN renal): 0.0446 µM
TGI (ACHN renal): 5.61 µM
GI50 (BT-549 breast): 0.487 µM
TGI (BT-549 breast): 15.8 µM
GI50 (CAKI-1 renal): 12.5 µM
TGI (CAKI-1 renal): 41.4 µM
GI50 (CCRF-CEM leukemia): 16.9 µM
TGI (CCRF-CEM leukemia): 56.9 µM
GI50 (COLO 205 colon): 16 µM
TGI (COLO 205 colon): 33.6 µM
GI50 (DU-145 prostate): 16.6 µM
TGI (DU-145 prostate): 34.5 µM
GI50 (EKVX NSCLC): 7.99 µM
TGI (EKVX NSCLC): 41.4 µM
GI50 (HCC-2998 colon): 15.2 µM
TGI (HCC-2998 colon): 31.6 µM
GI50 (HCT-116 colon): 15.4 µM
TGI (HCT-116 colon): 31.6 µM
GI50 (HCT-15 colon): 13.3 µM
TGI (HCT-15 colon): 35.6 µM
GI50 (HL-60(TB) leukemia): 7.43 µM
TGI (HL-60(TB) leukemia): 27.4 µM
GI50 (HOP-62 NSCLC): 17.1 µM
TGI (HOP-62 NSCLC): 37.3 µM
GI50 (HOP-92 NSCLC): 13.7 µM
TGI (HOP-92 NSCLC): 29.7 µM
GI50 (HS 578T breast): 0.0309 µM
TGI (HS 578T breast): 0.961 µM
GI50 (HT29 colon): 15.1 µM
TGI (HT29 colon): 34.1 µM
GI50 (IGROV1 ovarian): 24.3 µM
TGI (IGROV1 ovarian): 62.4 µM
GI50 (K-562 leukemia): 14 µM
TGI (K-562 leukemia): 61.9 µM
GI50 (KM12 colon): 14.8 µM
TGI (KM12 colon): 34.7 µM
GI50 (LOX IMVI melanoma): 15.9 µM
TGI (LOX IMVI melanoma): 32.3 µM
GI50 (M14 melanoma): 15.8 µM
TGI (M14 melanoma): 39.1 µM
GI50 (MALME-3M melanoma): 20.1 µM
TGI (MALME-3M melanoma): 42.8 µM
GI50 (MCF7 breast): 8.86 µM
TGI (MCF7 breast): 32.1 µM
GI50 (MDA-MB-231 breast): 19.2 µM
TGI (MDA-MB-231 breast): 49.5 µM
GI50 (MDA-MB-435): 16.2 µM
TGI (MDA-MB-435): 35.9 µM
GI50 (MOLT-4 leukemia): 13 µM
TGI (MOLT-4 leukemia): 45.1 µM
GI50 (NCI-H226 lung): 16.6 µM
TGI (NCI-H226 lung): 37.2 µM
GI50 (NCI-H23 lung): 17.1 µM
TGI (NCI-H23 lung): 44.9 µM
GI50 (NCI-H460 lung): 16 µM
TGI (NCI-H460 lung): 38.2 µM
GI50 (NCI-H522 lung): 16.8 µM
TGI (NCI-H522 lung): 45.4 µM
GI50 (NCI/ADR-RES ovarian): 0.348 µM
TGI (NCI/ADR-RES ovarian): 16 µM
GI50 (OVCAR-3 ovarian): 15 µM
TGI (OVCAR-3 ovarian): 30.6 µM
GI50 (OVCAR-4 ovarian): 15.2 µM
TGI (OVCAR-4 ovarian): 43 µM
GI50 (OVCAR-5 ovarian): 20.2 µM
TGI (OVCAR-5 ovarian): 47.4 µM
GI50 (OVCAR-8 ovarian): 0.354 µM
TGI (OVCAR-8 ovarian): 19.9 µM
GI50 (PC-3 prostate): 8.56 µM
TGI (PC-3 prostate): 31.5 µM
GI50 (RPMI-8226 leukemia): 12.8 µM
TGI (RPMI-8226 leukemia): 43.7 µM
GI50 (RXF 393 renal): 0.0388 µM
TGI (RXF 393 renal): 1.31 µM
GI50 (SF-268 CNS): 2.78 µM
TGI (SF-268 CNS): 32.5 µM
GI50 (SF-295 CNS): 12.8 µM
TGI (SF-295 CNS): 31.7 µM
GI50 (SF-539 CNS): 16.9 µM
TGI (SF-539 CNS): 35.8 µM
GI50 (SK-MEL-2 melanoma): 16.8 µM
TGI (SK-MEL-2 melanoma): 38.4 µM
GI50 (SK-MEL-28 melanoma): 18.1 µM
TGI (SK-MEL-28 melanoma): 42.2 µM
GI50 (SK-MEL-5 melanoma): 15.3 µM
TGI (SK-MEL-5 melanoma): 29.7 µM
GI50 (SK-OV-3 ovarian): 19 µM
TGI (SK-OV-3 ovarian): 44.8 µM
GI50 (SN12C renal): 1.14 µM
TGI (SN12C renal): 30.2 µM
GI50 (SNB-19 CNS): 22.1 µM
TGI (SNB-19 CNS): 59.8 µM
GI50 (SNB-75 CNS): 14.2 µM
TGI (SNB-75 CNS): 53.6 µM
GI50 (SR leukemia): 12 µM
TGI (SR leukemia): 44.8 µM
GI50 (SW-620 colon): 21.9 µM
TGI (SW-620 colon): 60 µM
GI50 (T-47D breast): 9.37 µM
TGI (T-47D breast): 48.8 µM
GI50 (TK-10 renal): 21.9 µM
TGI (TK-10 renal): 49.3 µM
GI50 (U251 CNS): 13.9 µM
TGI (U251 CNS): 28.1 µM
GI50 (UACC-257 melanoma): 22.6 µM
TGI (UACC-257 melanoma): 49.9 µM
GI50 (UACC-62 melanoma): 15.3 µM
TGI (UACC-62 melanoma): 36 µM
GI50 (UO-31 renal): 0.618 µM
TGI (UO-31 renal): 27.6 µM
